In brackets after ≈: the same amount, converted by molar mass. Structures can show the parent of a compound that is named as a salt. Where two headings read alike, the source gives them in different places.
Experiments:
HIV protease = target: T1, HIV protease (Human immunodeficiency virus type 1 group M subtype B, UniProt P04585); assay: Cell free protease inhibition assay (HIV gag polyprotein cleavage); format: biochemical; details: Table XVII, unit inferred, IC50 per method
T1 construct: inclusion bodies of E. coli harboring plasmid containing HIV protease under the control of the T7 promotor; made in house; host or cells: E. coli (A: crude lysate, lac promotor)
From the text: HIV gag polyprotein corresponding to all of p17 and 78 amino acids of p24, produced by in vitro translation using rabbit reticulocyte lysate and mRNA prepared in vitro from plasmid encoding full length gag polyprotein linerized with the restriction enzyme Pst 1. (See S. Erickson-Viitanen et al., Aids Research and Human Retroviruses, 5 (6), 577 (1989) for plasmid construction, and basis for assay).
Source of protease: Either (A) crude E. coli lysate of bacteria harboring a plasmid containing HIV protease under the control of the lac promotor, used at a final concentration of 0.5 mg/ml, or (B) inclusion bodies of E. coli harboring plasmid containing HIV protease under the control of the T7 promotor (Cheng et al., Gene, in press (1990). Such inclusion bodies were solubilized in 8M urea, 50 mM Tris pH 8.0. Protease activity was recovered by dilution of the inclusion bodies 20-fold in buffer containing 50 mM Sodium Acetate, pH 5.5, 1 mM EDTA, 10% glycerol and 5% ethylene glycol. This protease source was used at a final concentration of 0.00875 mg/ml.
Inhibitory compounds were dissolved in sufficient DMSO to make a 25 mM stock concentration. All further dilutions were done in DMSO.
Into sterile test tubes were placed the following:
14 ul HIV protease in Phosphate Buffered Saline (Gibco)
5 ul of in vitro translation products.
Reactions were incubated at 30° C., then quenched by the addition of Sample buffer. See U. K. Laemmli, Nature, 1970, 227:680-685.
One fourth of each sample was analyzed on an 8-16% gradient denaturing acrylamide gel (Novex, Inc), according to Laemmli. Following electrophoresis, gels were fixed, impregnated with Enhance (Du Pont NEN, Boston, Mass.) and dried according to manufacturers instructions (NEN). Dried fluorographs were exposed to film and/or quantitated using an Ambis radioanalytic scanner.
Each group of test compounds was compared to the values obtained for pepstatin, a well known inhibitor of acid proteases. Inhibitory concentration for 50% inhibition (IC50) is determined from plots of log concentration inhibitor versus % inhibition of protease activity.
Biological Activity: IC50 is the concentration necessary for reducing the activity of the enzyme by 50%.

HIV(3b) or HIV(Rf) = assay: HIV cell assay (HIV low multiplicity assay, protection of MT-2 cells from virus induced cell death, XTT); format: cell-based, Human immunodeficiency virus; details: for Cell Assay IC50: unit not given
Protocol: […], a human T-cell line, was cultured in RPMI medium supplemented with 5% (v/v) heat inactivated fetal calf serum (FCS), L-glutamine and gentamycin (GIBCO). Human immunodeficiency virus strains HIV(3b) and HIV (Rf) were propagated in H-9 cells in RPMI with 5% FCS. XTT, benzene-sulfonic acid, 3,3'-[1-[(phenylamino)carbonyl]-3,4-tetrazolium]bis(4-methoxy-6-nitro)-, sodium salt, was obtained from Starks Associates, Inc.
Test compounds were dissolved in dimethyl-sulfoxide to 5 mg/ml and serially diluted into RPMI medium to ten times the desired final concentration. MT-2 cells (5×10E4/0.1 ml) were added to each well of a 96 well culture plate and 0.02 ml of the appropriate test compound solution was added to the cells such that each compound concentration was present in two wells. The cells and compounds were allowed to sit for 30 minutes at room temperature. HIV(3b) or HIV(Rf) (~5×10E5 plaque forming units/ml) was diluted in medium and added to the cell and compound mixtures to give a multiplicity of infection of 0.01 plaque forming unit/cell. The mixtures were incubated for 7 days at 36° C., during which time the virus replicated and caused the death of unprotected cells. The percentage of cells protected from virus induced cell death was determined by the degree of metabolism of the tetrazolium dye, XTT. In living cells, XTT was metabolized to a colored formazan product which was quantitated spectrophoto-metrically at […]. The amount of colored formazan was proportional to the number of cells protected from virus by the test compound. The concentration of compound protecting either 50% (IC50) or 90% (IC90) with respect to an uninfected cell culture was determined.

[1] = read-out: Cell Free Assay (converted)
[2] = Human immunodeficiency virus 1, MT2, Table XVII, unit inferred, HIV in MT-2 cells, read-out: Cell Assay IC90
[3] = Human immunodeficiency virus 1, MT2, Table XVII, unit inferred, HIV in MT-2 cells, read-out: Cell Assay IC50

SMILES	IC50 (HIV protease; [1])	further results
CC(C)(C)OC(=O)NC(Cc1ccc(F)cc1)C(O)C(O)C(Cc1ccc(F)cc1)NC(=O)OC(C)(C)C (stereo not shown) [Example 11]	37.3 µM	
O=C(NC(Cc1ccccc1)C(O)C(O)C(Cc1ccccc1)NC(=O)OCc1ccccc1)OCc1ccccc1 (stereo not shown) [Example 9]	0.914 µM	
CC(C)(C)OC(=O)NC(CCc1ccccc1)C(O)C(O)C(CCc1ccccc1)NC(=O)OC(C)(C)C (stereo not shown) [Example 10, Bis(1,1-dimethylethyl) (2,3-dihydroxy-1,4-(2-phenylmethyl)-1,4-butanediyl)biscarbamate]	1130 µM	
CSCCC(NC(=O)OC(C)(C)C)C(O)C(O)C(CCSC)NC(=O)OC(C)(C)C (stereo not shown) [Example 1A]	25.6 µM	IC90 (HIV(3b) or HIV(Rf); [2]): 6 µg/mL (≈ 12.8 µM); Cell Assay IC50 (HIV(3b) or HIV(Rf); Table XVII, HIV in MT-2 cells): 2
CC(C)(C)OC(=O)N[C@@H](Cc1ccccc1)[C@H](O)[C@@H](O)[C@H](Cc1ccccc1)NC(=O)OC(C)(C)C [Example 2A, Bis(1,1-dimethylethyl) (2,3-dihydroxy-1,4-(phenylmethyl)-1,4-butanediyl)biscarbamate (1S,2S,3S,4S)]	24 µM	IC50 (HIV(3b) or HIV(Rf); [3]): 10 µg/mL (≈ 20 µM); IC90 (HIV(3b) or HIV(Rf); [2]): 30 µg/mL (≈ 59.9 µM)
CC(NC(=O)OC(C)(C)C)C(O)C(O)C(C)NC(=O)OC(C)(C)C (stereo not shown) [Example 4, Bis(1,1-dimethylethyl) (2,3-dihydroxy-1,4-dimethyl-1,4-butanediyl)biscarbamate]	1250 µM	
CSCCC(NC(=O)OC(C)(C)C)C(O)C(O)C(CCSC)NC(=O)OC(C)(C)C (stereo not shown) [Example 1B]	78.9 µM	Cell Assay IC50 (HIV(3b) or HIV(Rf); Table XVII, HIV in MT-2 cells): 5
CC(C)(C)OC(=O)N1CCCC1C(O)C(O)C1CCCN1C(=O)OC(C)(C)C (stereo not shown) [Example 7, Bis(1,1-dimethylethyl) 2,2'-(1,2-dihydroxy-1,2-ethanediyl)-1-bis(pyrrolidinecarboxylate)]	1250 µM	
CC(C)(C)OC(=O)NC(c1ccccc1)C(O)C(O)C(NC(=O)OC(C)(C)C)c1ccccc1 (stereo not shown) [Example 8, Bis (1,1-dimethylethyl) (2,3-dihydroxy-1,4-diphenyl-1,4-butanediyl)biscarbamate]	1250 µM	
CC(C)(C)OC(=O)N[C@@H](Cc1ccccc1)[C@H](O)[C@H](O)[C@H](Cc1ccccc1)NC(=O)OC(C)(C)C [Example 2C, Bis(1,1-dimethylethyl) (2,3-dihydroxy-1,4-(phenylmethyl)-1,4-butanediyl)biscarbamate (1S,2S,3R,4S)]	61.9 µM	
CC(C)(C)OC(=O)N[C@@H](Cc1ccccc1)[C@@H](O)[C@H](O)[C@H](Cc1ccccc1)NC(=O)OC(C)(C)C [Example 2B]	0.34 µM	IC50 (HIV(3b) or HIV(Rf); [3]): 1.9 µg/mL (≈ 3.8 µM); IC90 (HIV(3b) or HIV(Rf); [2]): 3 µg/mL (≈ 5.99 µM)
N[C@@H](Cc1ccccc1)[C@@H](O)[C@H](O)[C@@H](N)Cc1ccccc1 [Example 16, 2,5-Diamino-1,6-diphenyl-3,4-hexanediol dihydrochloride]	866 µM	
CCC(C)C(NC(=O)Cc1ccccn1)C(=O)NC(Cc1ccccc1)C(O)C(O)C(Cc1ccccc1)NC(=O)C(NC(=O)Cc1ccccn1)C(C)CC [Example 21, 2,5-(N-2-Pyridyl-L-Ile,N'-2-pyridyl-D-Ile)diamino-1,6-diphenyl-3,4-hexanediol]	0.00261 µM	IC50 (HIV(3b) or HIV(Rf); [3]): 6 µg/mL (≈ 7.84 µM)
CC(C)(C)OC(=O)NC(Cc1ccc(I)cc1)C(O)C(O)C(Cc1ccc(I)cc1)NC(=O)OC(C)(C)C (stereo not shown) [Example 12]	5.45 µM	
CC(C)(C)OC(=O)NCC(O)C(O)CNC(=O)OC(C)(C)C (stereo not shown) [Example 3, Bis(1,1-dimethylethyl) (2,3-dihydroxy-1,4-butanediyl)biscarbamate]	1200 µM	
CC(NC(=O)C(NC(=O)OC(C)(C)C)C(C)O)C(=O)NC(C(=O)NC(C)C(=O)NC(Cc1ccccc1)C(O)C(O)C(Cc1ccccc1)NC(=O)C(C)NC(=O)C(NC(=O)C(C)NC(=O)C(NC(=O)OC(C)(C)C)C(C)O)C(C)O)C(C)O (stereo not drawn) [Example 18, Bis(Boc-Thr-Ala-Thr-Ala), N,N'((2,3-dihydroxy-1,4-(phenylmethyl)-1,4-butanediyl))biscarbamate]		IC50 (HIV protease; read-out: Cell Free Assay): 1.93 µM; IC50 (HIV(3b) or HIV(Rf); Human immunodeficiency virus 1, MT2, read-out: Cell Assay IC50): 6 µg/mL (≈ 5.04 µM); IC90 (HIV(3b) or HIV(Rf); Human immunodeficiency virus 1, MT2, read-out: Cell Assay IC90): 12 µg/mL (≈ 10.1 µM)
CC(C)C(NC(=O)OC(C)(C)C)C(O)C(O)C(NC(=O)OC(C)(C)C)C(C)C (stereo not shown) [Example 5, Bis(1,1-dimethylethyl) (2,3-dihydroxy-1,4-(1-methylethyl)-1,4-butanediyl)biscarbamate]	161 µM	
CC(=O)N[C@@H](Cc1ccccc1)[C@@H](O)[C@H](O)[C@H](Cc1ccccc1)NC(C)=O [Example 14, N,N'-((2,3-dihydroxy-1,4-(phenylmethyl)-1,4-butanediyl))bisacetamide]	1250 µM	
CC(C)CC(NC(=O)OC(C)(C)C)C(O)C(O)C(CC(C)C)NC(=O)OC(C)(C)C (stereo not shown) [Example 6, Bis(1,1-dimethylethyl) (2,3-dihydroxy-1,4-(2-methylpropyl)-1,4-butanediyl)biscarbamate]	11.1 µM	
CC(C)(C)OC(=O)NC(Cc1ccc(O)cc1)C(O)C(O)C(Cc1ccc(O)cc1)NC(=O)OC(C)(C)C (stereo not shown) [Example 13, Bis(1,1-dimethylethyl) (2,3-dihydroxy-1,4-(4-hydroxyphenyl)methyl-1,4-butaneidyl)biscarbamate]	6.2 µM	IC50 (HIV(3b) or HIV(Rf); [3]): 2.3 µg/mL (≈ 4.32 µM); IC90 (HIV(3b) or HIV(Rf); [2]): 25 µg/mL (≈ 46.9 µM)
N[C@@H](Cc1ccccc1)[C@H](O)[C@@H](O)[C@@H](N)Cc1ccccc1 [Example 15, 2,5-Diamino-1,6-diphenyl-3,4-hexanediol dihydrochloride]	866 µM	
CC[C@H](C)[C@H](NC(=O)Cc1ccccn1)C(=O)N[C@@H](Cc1ccccc1)[C@@H](O)[C@H](O)[C@H](Cc1ccccc1)NC(=O)[C@@H](NC(=O)Cc1ccccn1)[C@@H](C)CC [Example 20, 2,5-(N-2-Pyridylacetyl-L-Ile)diamino-1,6-diphenyl-3,4-hexanediol]	0.0131 µM	IC50 (HIV(3b) or HIV(Rf); [3]): < 1 µg/mL; IC90 (HIV(3b) or HIV(Rf); [2]): < 1 µg/mL
CC(N)C(O)C(O)C(C)N (stereo not shown) [Example 17, 2,5-Diamino-3,4-hexanediol dihydrochloride]	1260 µM	
